Data on 24 compounds can be found in US10913738B2 (BRISTOL-MYERS SQUIBB COMPANY, priority 2017, dated 2021).

The target in assay [1] is T1, His-GST-TVMV-hRIPK1(1-324) (Homo sapiens, UniProt Q13546).
T1 construct: The coding region of human RIPK1(1-324) flanked by NdeI site at 5′ end; made in house; host or cells: Spodoptera frugiperda (Sf9) insect cells, baculovirus
T1 sequence (Q13546 1-324): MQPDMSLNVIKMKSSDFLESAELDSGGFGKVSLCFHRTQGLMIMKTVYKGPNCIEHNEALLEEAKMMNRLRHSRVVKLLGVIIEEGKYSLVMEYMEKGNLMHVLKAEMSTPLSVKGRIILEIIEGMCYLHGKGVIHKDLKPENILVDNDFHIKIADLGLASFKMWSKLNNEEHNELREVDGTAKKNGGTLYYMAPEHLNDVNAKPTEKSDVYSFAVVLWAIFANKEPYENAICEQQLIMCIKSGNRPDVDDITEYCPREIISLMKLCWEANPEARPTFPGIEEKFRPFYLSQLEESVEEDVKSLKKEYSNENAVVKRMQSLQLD
The assay is described as follows: RIPK1 HTRF Binding Assay.

The subject of assay [2] is MLKL phosphorylation in HT29-L23 human colorectal adenocarcinoma cells. The assay is described as follows: MLKL Phosphorylation High-Content Assay. In kind it is cell-based. Particulars: Homo sapiens. A digest of the protocol:
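Cells incubated six hours at 37° C., then phospho-MLKL (S358) immunostained overnight at 4° C. and imaged by high-content microscopy. Phosphorylation quantified as mean circ-ring average intensity ratio; IC50 and Ymax from 4-parameter logistic fits.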

[3] abbreviates: x marks IC50 class <20 nM, read-out: RIPK1 HTRF binding <20 nM.
Where [4] appears, read: x marks IC50 class 20-200 nM, read-out: pMLKL cell activity 20-200 nM.
[5] abbreviates: x marks IC50 class 20-200 nM, read-out: RIPK1 HTRF binding 20-200 nM.
[6] abbreviates: x marks IC50 class >200 nM, read-out: pMLKL cell activity >200 nM.
The mark [7] stands for this setting: x marks IC50 class <20 nM, read-out: pMLKL cell activity <20 nM.

SMILES strings stand for the structures. pIC50: −log10 of the molar value. Like-named read-outs stand apart in the source and are kept apart here. A value given as a limit tells only on which side of the number the result lay.

As for `Cc1ncc(C(=O)NCc2ncccc2OC2CCCC2)cc1-c1ccn2nc(N)nc2c1` [Example 17, 5-{2-Amino-[1,2,4]triazolo[1,5-a]pyridin-7-yl}-N-{[3-(cyclopentyloxy)pyridin-2-yl]methyl}-6-methylpyridine-3-carboxamide], the pIC50 in assay [1] (setting [3]) is greater than 7.70; in assay [2] (setting [4]), 6.70 to 7.70.

Regarding `Cc1ncc(-c2ccn3nc(N)nc3c2)cc1C(=O)NCc1ccc(F)cc1OCC1CCCC1` [Example 18, 5-{2-Amino-[1,2,4]triazolo[1,5-a]pyridin-7-yl}-N-{[2-(cyclopentylmethoxy)-4-fluorophenyl]methyl}-2-methylpyridine-3-carboxamide], the pIC50 in assay [1] (setting [5]) is 6.70 to 7.70; in assay [2] (setting [6]), less than 6.70.

Turning to `Nc1nc2cc(-c3cnc(C4CC4)c(C(=O)NCc4cccc(OC(F)(F)F)c4)c3)ccn2n1` [Example 19, 5-{2-Amino-[1,2,4]triazolo[1,5-a]pyridin-7-yl}-2-cyclopropyl-N-{[3-(trifluoromethoxy)phenyl]methyl}pyridine-3-carboxamide], the pIC50 in assay [1] (setting [5]) and in assay [2] (setting [4]) was 6.70 to 7.70 throughout.

Consider `Cc1ncc(-c2ccn3nc(N)nc3c2)cc1C(=O)NCc1cc(F)ccc1OCC1CCCC1` [Example 20, 5-{2-Amino-[1,2,4]triazolo[1,5-a]pyridin-7-yl}-N-{[2-(cyclopentylmethoxy)-5-fluorophenyl]methyl}-2-methylpyridine-3-carboxamide], for which the pIC50 in assay [1] (setting [3]) was greater than 7.70; in assay [2] (setting [4]) it was 6.70 to 7.70.

Turning to `COc1ncc(-c2ccn3nc(N)nc3c2)cc1C(=O)NCc1cnccc1OC1CCCC1` [Example 21, 5-{2-Amino-[1,2,4]triazolo[1,5-a]pyridin-7-yl}-N-{[4-(cyclopentyloxy)pyridin-3-yl]methyl}-2-methoxypyridine-3-carboxamide], the values for the pIC50 in assay [1] (setting [3]) and in assay [2] (setting [4]) were greater than 7.70 and 6.70 to 7.70, respectively.

In the case of `COc1ncc(-c2ccn3nc(N)nc3c2)cc1C(=O)NCc1cc(F)cc(F)c1OC(C)C` [Example 22, 5-{2-Amino-[1,2,4]triazolo[1,5-a]pyridin-7-yl}-N-{[3,5-difluoro-2-(propan-2-yloxy)phenyl]methyl}-2-methoxypyridine-3-carboxamide], the pIC50 in assay [1] (setting [3]) and in assay [2] (setting [7]) was greater than 7.70 each time.

Take `COc1ncc(-c2ccn3nc(N)nc3c2)cc1C(=O)NCc1c(F)cccc1OC1CCC(C)C1` (stereo not drawn) [Example 23, 5-{2-Amino-[1,2,4]triazolo[1,5-a]pyridin-7-yl}-N-({2-fluoro-6-[(3-methylcyclopentyl)oxy]phenyl}methyl)-2-methoxypyridine-3-carboxamide]: the pIC50 in assay [1] (setting [3]) and in assay [2] (setting [7]) was greater than 7.70 in each case.

As for `Cc1ncc(-c2ccn3nc(N)nc3c2)cc1C(=O)NCc1ccc(F)cc1OCC1CC1` [Example 24, 5-{2-Amino-[1,2,4]triazolo[1,5-a]pyridin-7-yl}-N-{[2-(cyclopropylmethoxy)-4-fluorophenyl]methyl}-2-methylpyridine-3-carboxamide], the values for the pIC50 in assay [1] (setting [5]) and in assay [2] (setting [6]) were 6.70 to 7.70 and less than 6.70, respectively.

For `COc1ncc(C(=O)NCc2c(F)cccc2OCC2CCC2)cc1-c1ccn2nc(N)nc2c1` [Example 25, 5-{2-Amino-[1,2,4]triazolo[1,5-a]pyridin-7-yl}-N-{[2-(cyclobutylmethoxy)-6-fluorophenyl]methyl}-6-methoxypyridine-3-carboxamide], the pIC50 was greater than 7.70 in assay [1] (setting [3]) and 6.70 to 7.70 in assay [2] (setting [4]).

In the case of `COc1ncc(C(=O)NCc2c(F)cccc2OCC2CC2)cc1-c1ccn2nc(N)nc2c1` [Example 26, 5-{2-Amino-[1,2,4]triazolo[1,5-a]pyridin-7-yl}-N-{[2-(cyclopropylmethoxy)-6-fluorophenyl]methyl}-6-methoxypyridine-3-carboxamide], the pIC50 in assay [1] (setting [3]) is greater than 7.70; in assay [2] (setting [4]), 6.70 to 7.70.

Turning to `COc1ncc(C(=O)NCc2cc(F)ccc2OC2CCCC2)cc1-c1ccn2nc(N)nc2c1` [Example 27, 5-{2-Amino-[1,2,4]triazolo[1,5-a]pyridin-7-yl}-N-{[2-(cyclopentyloxy)-5-fluorophenyl]methyl}-6-methoxypyridine-3-carboxamide], the pIC50 in assay [1] (setting [3]) and in assay [2] (setting [7]) was greater than 7.70 each time.

Turning to `COc1ncc(C(=O)NCc2ccccc2OCC2CC2)cc1-c1ccn2nc(N)nc2c1` [Example 28, 5-{2-Amino-[1,2,4]triazolo[1,5-a]pyridin-7-yl}-N-{[2-(cyclopropylmethoxy)phenyl]methyl}-6-methoxypyridine-3-carboxamide], the pIC50 in assay [1] (setting [3]) was greater than 7.70; in assay [2] (setting [4]) it was 6.70 to 7.70.

For `COc1ncc(-c2ccn3nc(N)nc3c2)cc1C(=O)NCc1c(F)cccc1OC(C)C` [Example 29, 5-{2-Amino-[1,2,4]triazolo[1,5-a]pyridin-7-yl}-N-{[2-fluoro-6-(propan-2-yloxy)phenyl]methyl}-2-methoxypyridine-3-carboxamide], the figures for the pIC50 in assay [1] (setting [3]) and in assay [2] (setting [4]) were greater than 7.70 and 6.70 to 7.70, respectively.

As for `COc1ncc(-c2ccn3nc(N)nc3c2)cc1C(=O)NCc1ccccc1O[C@@H]1C[C@H]2CC[C@@H]1C2` [Example 30, 5-{2-Amino-[1,2,4]triazolo[1,5-a]pyridin-7-yl}-N-({2-[(1R,2R,4S)-bicyclo[2.2.1]heptan-2-yloxy]phenyl}methyl)-2-methoxypyridine-3-carboxamide], the pIC50 in assay [1] (setting [5]) and in assay [2] (setting [4]) was 6.70 to 7.70 in each case.

With `COc1ncc(-c2ccn3nc(N)nc3c2)cc1C(=O)NCc1cc(F)ccc1OC(C)C` [Example 31, 5-{2-Amino-[1,2,4]triazolo[1,5-a]pyridin-7-yl}-N-{[5-fluoro-2-(propan-2-yloxy)phenyl]methyl}-2-methoxypyridine-3-carboxamide], the pIC50 in assay [1] (setting [3]) was greater than 7.70; in assay [2] (setting [4]), 6.70 to 7.70.

Consider `COc1ncc(-c2ccn3nc(N)nc3c2)cc1C(=O)NCc1ccccc1OC1CCC(C)C1` (stereo not drawn) [Example 32, 5-{2-Amino-[1,2,4]triazolo[1,5-a]pyridin-7-yl}-2-methoxy-N-({2-[(3-methylcyclopentyl)oxy]phenyl}methyl)pyridine-3-carboxamide], for which the pIC50 in assay [1] (setting [3]) and in assay [2] (setting [7]) was greater than 7.70 each time.

Regarding `COc1nc(C)c(-c2ccn3nc(N)nc3c2)cc1C(=O)NCc1ncccc1OCC1CC1` [Example 33, 5-{2-Amino-[1,2,4]triazolo[1,5-a]pyridin-7-yl}-N-{[3-(cyclopropylmethoxy)pyridin-2-yl]methyl}-2-methoxy-6-methylpyridine-3-carboxamide], the pIC50 in assay [1] (setting [3]) was greater than 7.70; in assay [2] (setting [4]) it was 6.70 to 7.70.

For `COc1nc(C)c(-c2ccn3nc(N)nc3c2)cc1C(=O)NCc1cccnc1OC1CCCC1` [Example 34, 5-{2-Amino-[1,2,4]triazolo[1,5-a]pyridin-7-yl}-N-{[2-(cyclopentyloxy)pyridin-3-yl]methyl}-2-methoxy-6-methylpyridine-3-carboxamide], the pIC50 in assay [1] (setting [3]) and in assay [2] (setting [7]) was greater than 7.70 in each case.

Regarding `Cc1ncc(-c2ccn3nc(N)nc3c2)cc1C(=O)NCc1ccccc1OC(C)C` [Example 35, 5-{2-Amino-[1,2,4]triazolo[1,5-a]pyridin-7-yl}-2-methyl-N-{[2-(propan-2-yloxy)phenyl]methyl}pyridine-3-carboxamide], the pIC50 in assay [1] (setting [5]) and in assay [2] (setting [4]) was 6.70 to 7.70 each time.

For the compound `COc1ncc(-c2ccn3nc(N)nc3c2)cc1C(=O)NCc1ncccc1OCC1CCC1` [Example 37, 5-{2-Amino-[1,2,4]triazolo[1,5-a]pyridin-7-yl}-N-{[3-(cyclobutylmethoxy)pyridin-2-yl]methyl}-2-methoxypyridine-3-carboxamide], the results for the pIC50 in assay [1] (setting [3]) and in assay [2] (setting [4]) were greater than 7.70 and 6.70 to 7.70, respectively.

On to `Cc1ncc(-c2ccn3nc(N)nc3c2)cc1C(=O)NCc1ccccc1OCC1CCCC1` [Example 39, 5-{2-Amino-[1,2,4]triazolo[1,5-a]pyridin-7-yl}-N-{[2-(cyclopentylmethoxy)phenyl]methyl}-2-methylpyridine-3-carboxamide], for which the values for the pIC50 in assay [1] (setting [3]) and in assay [2] (setting [4]) were greater than 7.70 and 6.70 to 7.70, respectively.

With `Nc1nc2cc(-c3cncc(C(=O)NCc4c(F)cccc4OC4CCCC4)c3)ccn2n1` [Example 40, 5-{2-Amino-[1,2,4]triazolo[1,5-a]pyridin-7-yl}-N-{[2-(cyclopentyloxy)-6-fluorophenyl]methyl}pyridine-3-carboxamide], the pIC50 was greater than 7.70 in assay [1] (setting [3]) and 6.70 to 7.70 in assay [2] (setting [4]).

Consider `Nc1nc2cc(-c3cncc(C(=O)NCc4cc(F)ccc4OC4CCCC4)c3)ccn2n1` [Example 41, 5-{2-Amino-[1,2,4]triazolo[1,5-a]pyridin-7-yl}-N-{[2-(cyclopentyloxy)-5-fluorophenyl]methyl}pyridine-3-carboxamide], for which the pIC50 in assay [1] (setting [3]) was greater than 7.70; in assay [2] (setting [4]) it was 6.70 to 7.70.

For `Nc1nc2cc(-c3cncc(C(=O)NCc4ccccc4OCC4CC4)c3)ccn2n1` [Example 42, 5-{2-Amino-[1,2,4]triazolo[1,5-a]pyridin-7-yl}-N-{[2-(cyclopropylmethoxy)phenyl]methyl}pyridine-3-carboxamide], the pIC50 in assay [1] (setting [3]) and in assay [2] (setting [7]) was greater than 7.70 in each case.
